The record followed here is patent US6890919B2, “Atypical antipsychotic agents having low affinity for the D2 receptor” (priority 2001, dated 2005).

As a reminder, the melting point is the temperature of the solid-liquid transition. The Ki is the equilibrium dissociation constant of an inhibitor or competing ligand from its target. A low value points to a stronger hold on the target. What is called ED50 is the dose at which the effect has come halfway, by size or by number of responders. Higher therefore signals weaker potency. By inhibition is commonly meant the drop in the measured response relative to a control, in per cent. A high value points to a strong effect.

Data set [1] relates to rats. Nature of the data set: Catalepsy grid-test (motor side-effects). It counts as in vivo. To be noted: for motor-side-effects (catalepsy): sc, doses 1-40 mg/kg. As to the method:
(§1) To document the fact that the compounds cross the blood brain barrier, occupancy at the dopamine D2 receptors using in-vivo occupancy measures was examined in rats. The test compound was injected subcutaneously followed 30 minutes later by an intravenous injection of ^3H-raclopride. The animals were sacrificed 1 hour after drug administration. In animals combining occupancy and catalepsy, rats were tested for catalepsy 10 minutes before sacrifice. Animals were sacrificed by decapitation. Striata and cerebella were rapidly dissected, processed and analyzed as described by Kapur et al. (2000b) Compounds which crossed the blood brain barrier and gave predictable dose-response relationships were then tested to see if they gave catalepsy. Catalepsy is the time-honoured animal model to predict the propensity of compounds to give rise to extrapyramidal side-effects in humans. Catalepsy was measured using a grid-test by a rater blind to the treatment-assignment. The time that animals remained immobile was used as an index of catalepsy by transforming raw-scores into catalepsy scores, with a score of 1 as questionable catalepsy and scores of 2-5 reflecting severity of catalepsy (Ahlenius S et al. 1986).

The next data set concerns the target dopamine D2 receptor (Homo sapiens, UniProt P14416). Nature of the data set: Binding affinity for dopamine D2 receptor, 3H-raclopride as ligand (Seeman 1993).
In a further data set the target is T1, dopamine D2 receptors (Rattus norvegicus, UniProt P61169).
T1 construct: Striata and cerebella were rapidly dissected, processed and analyzed as described by Kapur et al. (2000b); from tissue; host or cells: rat brain in vivo (striatum; cerebellum also dissected)
In words: In-vivo D2 receptor occupancy with 3H-raclopride. The note with it: rats; for ED50: rat, sc in acidified saline; for D2 occupancy: dose 1-40 mg/kg/sc in acidified saline, sacrifice 1 hour after drug. As for the experimental part: as §1

In data set [2] the test system is rats. Nature of the data set: Conditioned avoidance response (CAR), two-way active avoidance shuttlebox. Format: in vivo. As for the experimental part: Therefore the new compounds were tested for activity in this model. For conditioned avoidance-response, rats were trained and tested in a computer assisted two-way active avoidance (shuttlebox), with an 80 dB white-noise as a conditioned stimulus, followed ten seconds later by a 0.6 mA shock as the unconditioned stimulus. Details of the procedure have been described elsewhere (Wadenberg M L et al. 2000).

The test system of the next data set is FOS protein. Nature of the data set: FOS immunohistochemistry. The note with it: rats, two hours after injection; for FOS protein induction in the nucleus accumbens: shell of nucleus accumbens. Format: in vivo. As for the experimental part:
In particular, all antipsychotics induce FOS in the nucleus accumbens regions while those likely to give rise to motor side-effects also induce FOS in the dorsolateral striatum (Robertson et al. 1994). For examining the distribution of FOS protein by the test compound, the test compound was injected into rats and two hours later, the animals were deeply anaesthetized with sodium phenobarbitol (100 mg/kg i.p.) and perfused transcardially, the brains removed and post-fixed. Immunostaining was performed on free-floating forty-micron sections with a rabbit-raised polyclonal primary anti-FOS antiserum (diluted 1:250 and incubated 48 hours at 4° C.) (4-17 aminoacids of human Fos; Oncogene Research Products, Cambridge, Mass., USA). Exposure to a biotinylated goat anti-rabbit secondary antibody (1:600, Vector Laboratories, Burlingame, Calif., USA) followed by incubation with horseradish peroxidase avidin-biotin complex (Vector Laboratories, Vector Laboratories, Burlingame, Calif., USA) was used to visualize the FOS staining. Fos-immunoreactive nuclei were counted within 400×400 μm grid at a magnification of 100× in the shell of nucleus accumbens and dorsolateral striatum.

Structures can show the parent of a compound that is named as a salt.

dopamine D2 receptor, sequence (P14416 whole entry, species assumed): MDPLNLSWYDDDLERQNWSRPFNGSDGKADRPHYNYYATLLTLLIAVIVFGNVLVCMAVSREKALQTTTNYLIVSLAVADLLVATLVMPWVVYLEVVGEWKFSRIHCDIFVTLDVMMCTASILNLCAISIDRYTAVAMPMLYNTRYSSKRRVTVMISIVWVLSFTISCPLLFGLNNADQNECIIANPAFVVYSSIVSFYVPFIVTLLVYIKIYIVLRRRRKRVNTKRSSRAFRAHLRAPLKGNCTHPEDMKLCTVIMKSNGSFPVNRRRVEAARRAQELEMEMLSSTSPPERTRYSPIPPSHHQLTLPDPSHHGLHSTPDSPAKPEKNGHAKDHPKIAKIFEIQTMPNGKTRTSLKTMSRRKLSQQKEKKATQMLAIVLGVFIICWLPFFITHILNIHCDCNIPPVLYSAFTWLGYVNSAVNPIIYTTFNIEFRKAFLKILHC
T1 sequence (P61169 whole entry): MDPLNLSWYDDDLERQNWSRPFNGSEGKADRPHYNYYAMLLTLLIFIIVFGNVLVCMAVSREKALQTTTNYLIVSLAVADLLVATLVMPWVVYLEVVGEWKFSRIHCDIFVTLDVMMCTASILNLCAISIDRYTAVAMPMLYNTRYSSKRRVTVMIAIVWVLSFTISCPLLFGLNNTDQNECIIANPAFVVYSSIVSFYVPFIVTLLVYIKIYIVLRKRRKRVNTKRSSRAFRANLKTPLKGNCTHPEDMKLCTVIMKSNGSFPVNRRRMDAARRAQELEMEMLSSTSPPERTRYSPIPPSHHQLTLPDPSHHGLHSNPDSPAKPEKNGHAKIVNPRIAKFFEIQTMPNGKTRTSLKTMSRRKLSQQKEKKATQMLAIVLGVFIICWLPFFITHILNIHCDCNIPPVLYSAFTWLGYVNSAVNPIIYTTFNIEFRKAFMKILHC

Take `CC(C)N1CCN(C2=Nc3cc(C(F)(F)F)ccc3Oc3ccccc32)CC1` (as salt: HCl) [Example 4, 8-Trifluoromethyl-11-(4-isopropylpiperazin-1-yl)-dibenzo[b,f][1,4]oxazepine.HCl]: the melting point is 270 °C (dec.).

Turning to `CCCCN1CCN(C2=Nc3cc(C(F)(F)F)ccc3Oc3ccccc32)CC1` (as salt: HCl) [Example 5, 8-Trifluoromethyl-11-(4-butylpiperazin-1-yl)-dibenzo[b,f][1,4]oxazepine.HCl], the melting point was 240 °C (dec.).

Turning to `CN1CCN(C2=Nc3cc(Cl)ccc3Nc3ccccc32)CC1` [Clozapine, reference compound], the catalepsy result in the data set with rats [1] (doses up to 20 mg/kg/sc) is reported as “did not give rise to catalepsy”.

Turning to `CCN1CCN(C2=Nc3cc(C(F)(F)F)ccc3Oc3ccccc32)CC1` [Example 1, 8-Trifluoromethyl-11-(4-ethylpiperazin-1-yl)-dibenzo[b,f][1,4]oxazepine], the melting point fell in the range of 76 to 77 °C. The Ki on dopamine D2 receptor stood at 258 nM.

Compound `OCCN1CCN(C2=Nc3cc(C(F)(F)F)ccc3Oc3ccccc32)CC1` [Example 2, 8-Trifluoromethyl-11-(4-(2′-hydroxyethyl)piperazin-1-yl)-dibenzo[b,f][1,4]oxazepine] registered a melting point of 110 to 111 °C. Further, the Ki on dopamine D2 receptor is 414 nM.

`CC(C)N1CCN(C2=Nc3cc(C(F)(F)F)ccc3Oc3ccccc32)CC1` [Example 4, 8-Trifluoromethyl-11-(4-isopropylpiperazin-1-yl)-dibenzo[b,f][1,4]oxazepine.HCl] came in with a Ki on dopamine D2 receptor of 215 nM.

Turning to `CCCCN1CCN(C2=Nc3cc(C(F)(F)F)ccc3Oc3ccccc32)CC1` [Example 5, 8-Trifluoromethyl-11-(4-butylpiperazin-1-yl)-dibenzo[b,f][1,4]oxazepine.HCl], the Ki at dopamine D2 receptor amounted to 250 nM.

Consider `CCN1CCN(C2=Nc3cc(Cl)ccc3Oc3ccccc32)CC1` [Example 6, 8-Chloro-11-(4-ethylpiperazin-1-yl)-dibenzo[b,F][1,4]oxazepine], for which, on dopamine D2 receptors, the median effective dose (ED50) is approximately 5 mg/kg and the D2 occupancy is recorded as 5-81%. In addition, the “motor-side-effects (catalepsy)” value in the data set with rats [1] is “No animals showed any evidence of motor-side-effects”. The inhibition at 10 mg/kg with rats [2] (Rattus norvegicus, 10 mg/kg/sc) is more than 50%. Also, in the data set with FOS protein, the “FOS protein induction in the dorsolateral striatum” value was “no induction” and the “FOS protein induction in the nucleus accumbens” value is reported as “robust induction”. This compound displayed a Ki at dopamine D2 receptor of 42 nM.

In the case of `OCCN1CCN(C2=Nc3cc(Cl)ccc3Oc3ccccc32)CC1` [Example 7, 8-Chloro-11-(4-(2′-hydroxyethyl)piperazin-1-yl)-dibenzo[b,f][1,4]oxazepine], the melting point fell in the range of 149 to 150 °C. Further, at dopamine D2 receptors, the ED50 stood at 10 mg/kg and the D2 occupancy is 22-75%. Further, the “motor-side-effects (catalepsy)” value in the data set with rats [1] is on record as “No animals showed any evidence of motor-side-effects”. The compound also yielded an inhibition at 20 mg/kg with rats [2] (Rattus norvegicus, 20 mg/kg/sc) of more than 50%. Further, the Ki at dopamine D2 receptor stood at 108 nM.

In turn, `CCCN1CCN(C2=Nc3cc(Cl)ccc3Oc3ccccc32)CC1` [Example 8, 8-Chloro-11-(4-propylpiperazin-1-yl)-dibenzo[b,f][1,4]oxazepine] returned a melting point of 90 to 91 °C. The compound also returned a Ki at dopamine D2 receptor of 23 nM.

Compound `CC(C)N1CCN(C2=Nc3cc(Cl)ccc3Oc3ccccc32)CC1` [Example 9, 8-Chloro-11-(4-isopropylpiperazin-1-yl)-dibenzo[b,f][1,4]oxazepine] came in with a melting point of 55 to 56 °C. On dopamine D2 receptor, this compound displayed a Ki of 150 nM.

Compound `CCCCN1CCN(C2=Nc3cc(Cl)ccc3Oc3ccccc32)CC1` [Example 10, 8-Chloro-11-(4-butylpiperazin-1-yl)-dibenzo[b,f][1,4]oxazepine] registered a melting point of 97 to 98 °C. The inhibitory constant (Ki) on dopamine D2 receptor amounted to 28 nM.

The compound `CCN1CCN(C2=Nc3cc(Cl)ccc3Sc3ccccc32)CC1` [Example 12, 8-Chloro-11-(4-ethylpiperazin-1-yl)-dibenzo[b,f][1,4]thiazepine] showed a melting point of 100 to 101 °C. The compound further returned a Ki at dopamine D2 receptor of 63 nM.

Regarding `OCCN1CCN(C2=Nc3cc(Cl)ccc3Sc3ccccc32)CC1` [Example 13, 8-Chloro-11-(4-(2′-hydroxyethyl)piperazin-1-yl)-dibenzo[b,f][1,4]thiazepine], the melting point lay in the range of 110 to 111 °C. On dopamine D2 receptor, this compound displayed a Ki of 88 nM.

Turning to `CC(C)N1CCN(C2=Nc3cc(Cl)ccc3Sc3ccccc32)CC1` [Example 15, 8-Chloro-11-(4-isopropylpiperazin-1-yl)-dibenzo[b,f][1,4]thiazepine.HCl], the Ki at dopamine D2 receptor was determined as 58 nM.

For the compound `O=C(CCCN1CCC(O)(c2ccc(Cl)cc2)CC1)c1ccc(F)cc1` [haloperidol, reference compound], in the data set with rats [2] (>0.05 mg/kg/sc, without catalepsy or escape deficits), the inhibition of avoidance result was “robust inhibition of avoidance”. For the same compound, in the data set with FOS protein, the “FOS protein induction in the dorsolateral striatum” value was “resulted in FOS in the dorsolateral striatum” and the “FOS protein induction in the nucleus accumbens” value is “robust FOS induction”.
